According to publication PMC9784828, “Antimicrobial Activity of Peptide-Coupled Antisense Peptide Nucleic Acids in Streptococcus pneumoniae” (Microbiology Spectrum, 2022):

Tests used:
rpoB mRNA = test: RT-qPCR, relative expression of rpoB; format: cell-based, Streptococcus pneumoniae; settings: TIGR4; 10 μM CPP-anti-rpoB PNA; 6 h; normalised to 5S rRNA; n = 3
Method: (§1) We investigated the influence of treatment with CPP-conjugated antisense PNAs on the amount of target gene mRNA in S. pneumoniae using reverse transcription-quantitative PCR (RT-qPCR) (Fig. 3). S. pneumoniae strain TIGR4 was treated with a sublethal dose (log CFU reduction of <2) of CPP-PNA conjugates. Transcript abundance of the 5S rRNA gene was used for normalization ([27]). Target gene mRNA levels in mock-treated bacteria served as controls. Treatment with 7.5 μM CPP-anti-gyrA PNAs and 10 μM CPP-anti-rpoB PNAs led to significant reductions in the respective target gene transcripts compared to the untreated control sample (Fig. 3).
(§2) For RNA isolation, 450 μL bacterial suspension (10^5 CFU/mL in BHI) was prepared for each experimental condition, treated with CPP-PNA conjugates as indicated, and incubated in a 2-mL reaction tube for 6 h at 37°C and 7 rpm (Rotor SB3; Stuart, Staffordshire, United Kingdom). Subsequently, five samples per condition were pooled. […]
(§3) cDNA synthesis was performed using the Superscript First-Strand Synthesis system for RT-qPCR (Invitrogen, Thermo Fisher Scientific, Darmstadt, Germany). Quantitative PCR amplification was conducted with SYBR Green (Thermo Fisher Scientific) using the LightCycler 480 real-time PCR system (Roche Diagnostics GmbH, Mannheim, Germany). […] Relative expression was calculated using the 2^–ΔΔ^CT method ([27]). […]

[1] = tested on: ply (pneumolysin) transcript; test: RT-qPCR, relative expression of virulence gene ply; format: cell-based, Streptococcus pneumoniae; settings: TIGR4; 10 μM CPP-anti-rpoB PNA; normalised to 5S rRNA; n = 3
Method: (§4) Because the product of rpoB is the β-subunit of the bacterial RNA-polymerase, which is responsible for RNA synthesis, downregulation of rpoB by treatment with antisense PNAs is expected to affect gene expression. Therefore, we tested the relative expression of two virulence factor genes following treatment with 10 μM CPP-anti-rpoB PNAs compared to expression in the mock-treated control as an example (Fig. 3C and D).
as §2, with “pooled. Bacteria were pelleted immediately, shock-frozen in liquid nitrogen, and stored at −80°C until use. Total RNA was extracted according to the protocol published by Li-Korotky et al. ([46]).” for “pooled.”
as §3

[2] = tested on: pspA (pneumococcal surface protein A) transcript; test: RT-qPCR, relative expression of virulence gene pspA; format: cell-based, Streptococcus pneumoniae; settings: TIGR4; 10 μM CPP-anti-rpoB PNA; normalised to 5S rRNA; n = 3
Method: as §4
as §2, with “pooled. Bacteria were pelleted immediately, shock-frozen in liquid nitrogen, and stored at −80°C until use. Total RNA was extracted according to the protocol published by Li-Korotky et al. ([46]).” for “pooled.”
as §3

S. pneumoniae TIGR4 = test: In vitro time-killing assay (killing kinetics); format: cell-based, Streptococcus pneumoniae; settings: 10 μM, n = 3
Method: The antimicrobial activity kinetics of TAT- and (RXR)4XB-conjugated anti-gyrA PNA constructs in S. pneumoniae TIGR4 were studied using an in vitro time-killing assay. Bacteria were treated with 10 μM CPP-antisense PNAs or scrambled control PNAs (Fig. 2). Samples were collected every 2 h following antisense treatment. CFU/mL was determined by plating of serial dilutions and plotted over time. […] In contrast, (RXR)4XB-conjugated anti-gyrA PNA treatment led to a continuous reduction in S. pneumoniae CFU until complete eradication after 12 h.
For monitoring of killing kinetics, samples were collected 2 to 12 h post-treatment. Viable cell counts were determined by plating appropriate dilutions on BHI agar plates. CFU were determined by visual inspection following overnight incubation at 37°C under a 5% CO2 atmosphere. At time point 0, the viable cell count corresponded to 1 × 10^5 to 3 × 10^5 CFU/mL.

gyrA mRNA = test: RT-qPCR, relative expression of gyrA; format: cell-based, Streptococcus pneumoniae; settings: TIGR4; 7.5 μM CPP-anti-gyrA PNA; 6 h; normalised to 5S rRNA; 2^–ΔΔCT; n = 3
Method: as §1, §2, §3

[3] = tested on: Detroit 562 cells infected with S. pneumoniae TIGR4; test: Cell-based infection model, bacterial CFU; parameters: species or system Streptococcus pneumoniae; settings: 20 μM CPP-PNA; MOI 5; 3 h at 37°C; n = 3
Method: Detroit 562 human pharyngeal epithelial cells were infected with S. pneumoniae TIGR4 at a multiplicity of infection (MOI) of 5. Cells were treated with 20 μM (RXR)4XB-anti-gyrA PNA or scrambled control PNA, respectively. As a positive control, 1 μg levofloxacin, corresponding to 3× MIC, was added. Following incubation for 3 h at 37°C, bacterial CFU counts were determined for CPP-antisense PNA-treated samples and compared to those in nontreated samples and in samples containing scrambled control PNAs (Fig. 4A). Treatment with (RXR)4XB-anti-gyrA caused a log CFU reduction of 1. Addition of levofloxacin led to a log CFU reduction of 2.
The human pharynx carcinoma epithelial cell line Detroit 562 (ATCC CCL138) was cultivated in Dulbecco’s modified Eagle medium (DMEM)/F12 (1:1) (Thermo Fisher Scientific, Schwerte, Germany) supplemented with 10% fetal bovine serum at 37°C and 5% CO2. Confluent Detroit 562 cells were infected with S. pneumoniae TIGR4 at an MOI of 5. Cultures were treated with 20 μM CPP-PNAs or 1 μg levofloxacin, respectively, and incubated for 3 h at 37°C, 5% CO2. After incubation, the supernatant was collected. Adherent cells were detached with Accutase solution (Merck KGaA, Darmstadt, Germany), collected by centrifugation for 10 min at 4,000 × g, and combined with the supernatant. Cells were pelleted by centrifugation, washed twice with PBS, and suspended in PBS. CFU/well was determined following serial dilution and plating on Todd Hewitt Broth, supplemented with Yeast, (THY) agar plates.

Substance	rpoB transcript level relative to mock-treated control (rpoB mRNA) [%]	Expression of ply relative to mock-treated control [1] [%]	Expression of pspA relative to mock-treated control [2]	Time to complete eradication of S. pneumoniae CFU (S. pneumoniae TIGR4) [h]	gyrA mRNA level relative to mock-treated control (gyrA mRNA) [%]	log CFU reduction in infected Detroit 562 cells [3]
GRKKRRQRRRYK-eg-ctgccaagatga [TAT-anti-rpoB PNA, HIV-1 TAT (48–57) peptide coupled to antisense PNA against S. pneumoniae rpoB]	45	45	57%	–	–	–
RXRRXRRXRRXRXB-eg-ctgccaagatga [(RXR)4XB-anti-rpoB PNA, (RXR)4XB peptide coupled to antisense PNA against rpoB]	51	56	no significant reduction	–	–	–
RXRRXRRXRRXRXB-eg-tgcattaata [(RXR)4XB-anti-gyrA PNA, (RXR)4XB peptide coupled to antisense PNA against gyrA]	–	–	–	12	45	1
